Experiments:
human LXR beta = target: T1, human LXR beta (Homo sapiens, UniProt P55055); experiment: Radioligand binding assay (scintillation proximity), LXR beta; conditions: GST-LXR beta-LBD on SPA beads, radioligand displacement; read-out: LXRbeta Binding IC50
T1 construct: human LXR beta (aa 155 to 460); made in house; host or cells: E. coli BL21(pLysS)
T1 sequence (P55055 155-460): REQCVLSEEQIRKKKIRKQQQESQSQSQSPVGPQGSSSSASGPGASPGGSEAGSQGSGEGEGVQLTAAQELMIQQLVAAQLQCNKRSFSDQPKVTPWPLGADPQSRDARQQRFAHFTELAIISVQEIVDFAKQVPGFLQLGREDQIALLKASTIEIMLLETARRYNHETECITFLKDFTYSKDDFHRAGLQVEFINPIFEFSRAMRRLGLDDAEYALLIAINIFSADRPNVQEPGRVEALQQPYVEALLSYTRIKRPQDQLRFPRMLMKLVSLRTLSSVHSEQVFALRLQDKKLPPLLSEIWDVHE
Experimental: (§1) The following tests were carried out in order to determine the activity of the compounds of the present invention. Background information on the performed assays can be found in: Nichols J S et al. “Development of a scintillation proximity assay for peroxisome proliferator-activated receptor gamma ligand binding domain”, Anal Biochem. 1998, 257: 112-119.
(§2) Mammalian expression vectors were constructed to express full-length human LXR alpha and LXR beta. Bacterial expression vectors were constructed to produce glutathione-s-transferase (GST) fused to the ligand binding domains (LBD) of human LXR alpha (aa 164 to 447) and human LXR beta (aa 155 to 460). To accomplish this, the portions of the sequences encoding the LBDs were amplified from full-length clones by PCR and then subdoned into the plasmid vectors. Final clones were verified by DNA sequence analysis (Willy et al., Genes Dev. 1995, 9:1033-45; Song et al., Proc Natl Acad Sci USA.1994, 91:10809-13). […]
(§3) LXR alpha and LXR beta receptor binding were assayed in buffer consisting of 50 mM HEPES, pH 7.4, 10 mM NaCl, 5 mM MgCl2. […] All binding assays were performed in 96-well plates and the amount of bound ligand was measured on a Packard TopCount using OptiPlates (Packard). Dose response curves were measured within a range of concentration from 10^−10 M to 10^−4 M.

human LXR alpha = target: T2, human LXR alpha (Homo sapiens, UniProt Q13133); experiment: Radioligand binding assay (scintillation proximity), LXR alpha; conditions: GST-LXRα-LBD on SPA beads, radioligand displacement; read-out: LXRalpha Binding IC50
T2 construct: human LXR alpha (aa 164 to 447); made in house; host or cells: E. coli BL21(pLysS)
T2 sequence (Q13133 164-447): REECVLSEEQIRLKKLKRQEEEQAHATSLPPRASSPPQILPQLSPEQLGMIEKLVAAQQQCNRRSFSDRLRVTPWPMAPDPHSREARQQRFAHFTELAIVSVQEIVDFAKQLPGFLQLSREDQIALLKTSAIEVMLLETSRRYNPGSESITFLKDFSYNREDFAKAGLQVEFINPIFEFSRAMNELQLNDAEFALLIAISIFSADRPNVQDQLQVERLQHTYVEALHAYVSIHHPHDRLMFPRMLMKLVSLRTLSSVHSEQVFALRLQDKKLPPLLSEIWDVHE
Experimental: as §1, §2, §3

| SMILES | IC50 (human LXR beta) [nM] | IC50 (human LXR alpha) [nM] |
| --- | --- | --- |
| Cc1cc2cc(C(O)(C(F)(F)F)C(F)(F)F)ccc2n1Cc1ccccc1 [Example 80, 2-(1-benzyl-2-methyl-1H-indol-5-yl)-1,1,1,3,3,3-hexafluoro-propan-2-ol] | 50 | 30 |
| CC1Cc2cc(C(O)(C(F)(F)F)C(F)(F)F)ccc2N1Cc1cccc(CO)c1 (stereo not shown) [Example 50, 1,1,1,3,3,3-hexafluoro-2-[1-(3-hydroxymethyl-benzyl)-2-methyl-2,3-dihydro-1H-indol-5-yl]-propan-2-ol] | 6 | 20 |

— patent publication US7485652B2, “Indolyl derivatives as liver-X-receptor (LXR) modulators” (Hoffmann-La Roche Inc., priority 2004, dated 2009)
